The text below walks through data of patent US20250320227A1, “MACROCYCLIC OREXIN RECEPTOR AGONISTS AND USES THEREOF” (Jazz Pharmaceuticals Ireland Limited, priority 2022, published 2025).

Structures are written as SMILES. Where only a bound is given, the exact number is not on record here.

One data set deals with T1, human recombinant OX2 (hOX2) receptors expressed in CHO cells (Homo sapiens, UniProt O43614).
T1 construct: host or cells: CHO cells (hOX2-CHO)
T1 sequence (O43614 1-444): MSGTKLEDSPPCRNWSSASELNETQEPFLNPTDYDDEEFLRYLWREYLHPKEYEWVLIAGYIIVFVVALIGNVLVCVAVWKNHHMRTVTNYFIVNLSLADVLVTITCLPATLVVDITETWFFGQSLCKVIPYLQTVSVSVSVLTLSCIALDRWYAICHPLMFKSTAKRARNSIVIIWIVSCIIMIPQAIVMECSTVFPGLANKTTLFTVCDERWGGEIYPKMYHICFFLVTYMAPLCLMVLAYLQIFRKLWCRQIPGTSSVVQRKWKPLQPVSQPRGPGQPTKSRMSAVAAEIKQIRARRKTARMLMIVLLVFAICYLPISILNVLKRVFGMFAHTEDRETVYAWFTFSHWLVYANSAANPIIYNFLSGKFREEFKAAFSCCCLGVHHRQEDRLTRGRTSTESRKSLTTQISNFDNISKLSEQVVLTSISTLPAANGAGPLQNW
In words: IP-1 accumulation assay (IP-One HTRF) in hOX2-CHO cells. It counts as cell-based. Conditions: 60 min incubation at 37° C., mean of at least two independent experiments, read-out: EC50_OX2R Category. The method, boiled down:
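CHO cells in suspension in HBSS/20 mM HEPES pH 7.4 with 50 mM LiCl and 0.1% BSA, given compound (11-point series, 0.5% DMSO) for 60 min at 37 °C. IP-1 read by HTRF ratio, scaled to maximal OX-A response; EC50 from four-parameter fit, mean of ≥2 experiments.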
In the case of `C[C@@H]1C[C@@]2(COCC(=O)N2)[C@@H]2CO[C@H]3CC[C@H](CC3)c3cc(F)cc(F)c3OCCC(=O)N12` [Example 25a, (1′s,3S,13′R,16′R, 19′s)-4′,6′-difluoro-13′-methyl-8′,18′-dioxa-12′-azaspiro[morpholine-3,15′-tetracyclo[17.2.2. 0^2,^7.0^12,^16]tricosane]-2′,4′,6′-triene-5,11′-dione], the EC50 was less than 100 nM.

With `C[C@@H]1C[C@]2(COCC(=O)N2)[C@H]2CO[C@H]3CC[C@H](CC3)c3cc(F)cc(F)c3OCCC(=O)N12` [Example 25b, (1′s,3R,13′R,16′S, 19′s)-4′,6′-difluoro-13′-methyl-8′,18′-dioxa-12′-azaspiro[morpholine-3,15′-tetracyclo[17.2.2. 0^2,^7.0^12,^16]tricosane]-2′,4′,6′-triene-5,11′-dione], the EC50 was less than 100 nM.

As to `O=C1COCC2(CCCN3C(=O)COc4ccccc4[C@H]4CC[C@H](CC4)OCC32)N1` (stereo partly drawn) [Example 32, Rel-(1′s,3S,16′R,19′s)-8′,18′-dioxa-11′-azaspiro[morpholine-3, 15′-tetracyclo-[17.2.2.0^2,70.0^11,16]tricosane]-2′(7′),3′,5′-triene-5,10′-dione], the EC50 was less than 100 nM.

`O=C1COCC2(CCCN3C(=O)CCOc4ccccc4[C@H]4CC[C@H](CC4)OCC32)N1` (stereo partly drawn) [Example 33, Rel-(1′s,3S,17′R,20's)-8′,19′-dioxa-12′-azaspiro[morpholine-3,16′-tetracyclo-[18.2.2.0^2,70.0^12,17]tetracosane]-2′(7′),3′,5′-triene-5,11′-dione]: the EC50 was less than 100 nM.

With `O=C1COCC2(CCCN3C(=O)CCCOc4ccccc4[C@H]4CC[C@H](CC4)OCC32)N1` (stereo partly drawn) [Example 34, Rel-(1′s,3S,18′R,21′s)-8′,20′-dioxa-13′-azaspiro[morpholine-3,17′-tetracyclo[19.2.2.0^2,70.0^13,18]pentacosane]-2′(7′),3′,5′-triene-5,12′-dione], the EC50 is less than 100 nM.

In the case of `CC1Oc2ccccc2[C@H]2CC[C@H](CC2)OCC2N(CCCC23COCC(=O)N3)C1=O` (stereo partly drawn) [Example 35, Rel-(1′s,3S,16′R,19′s)-9′-methyl-8′,18′-dioxa-11′-azaspiro[morpholine-3, 15′-tetracyclo[17.2.2.0^2,70.0^11,16]tricosane]-2′(7′),3′,5′-triene-5,10′-dione], the EC50 is less than 100 nM.

For `CC1(C)Oc2ccccc2[C@H]2CC[C@H](CC2)OCC2N(CCCC23COCC(=O)N3)C1=O` (stereo partly drawn) [Example 36, Rel-(1′s,3S,16′R,19′s)-9′,9′-dimethyl-8′,18′-dioxa-11′-azaspiro[morpholine-3,15′-tetracyclo[17.2.2.0^2,70.0^11,16]tricosane]-2′(7′),3′,5′-triene-5,10′-dione], the EC50 was 100 to 1000 nM.

Take `O=C1COCC2(CCCN3C(=O)C4(CC4)COc4ccccc4[C@H]4CC[C@H](CC4)OCC32)N1` (stereo partly drawn) [Example 37, Rel-(1′s,16′S,17′R,20's)-dispiro[cyclopropane-1,10′-[8,19]dioxa-[12]azatetracyclo[18.2.2.0^2,70.0^12,17]tetracosane-16′,3″-morpholine]-2′(7′),3′,5′-triene-5″,11′-dione]: the EC50 is less than 100 nM.

Take `O=C1COCC2(CCCN3C(=O)COc4ccc(F)cc4[C@H]4CC[C@H](CC4)OCC32)N1` (stereo partly drawn) [Example 41, Rel-(1′s,3S,16′R,19′s)-4′-fluoro-8′,18′-dioxa-11′-azaspiro[morpholine-3,15′-tetracyclo[17.2.2. 0^2,^7.0^11,^16]tricosane]-2′(7′),3′,5′-triene-5,10′-dione]: the EC50 was less than 100 nM.

For `O=C1COCC2(CCCN3C(=O)COc4ncccc4[C@H]4CC[C@H](CC4)OCC32)N1` (stereo partly drawn) [Example 45, Rel-(1′s,3S,16′R,19′s)-8′,18′-dioxa-6′,11′-diazaspiro [morpholine-3,15′-tetracyclo[17.2.2. 0^2,^7.0^11,^16]tricosane]-2′(7′),3′,5′-triene-5,10′-dione], the EC50 was less than 100 nM.

In the case of `O=C1COC[C@]2(CCCN3C(=O)COc4ncccc4[C@H]4CC[C@H](CC4)OC[C@@H]32)N1` [Example 45b, (1′s,3R,16′S,19′s)-8′,18′-dioxa-6′,11′-diazaspiro [morpholine-3,15′-tetracyclo[17.2.2. 0^2,^7.0^11,^16]tricosane]-2′(7′),3′,5′-triene-5,10′-dione], the EC50 is greater than 10000 nM.

For `Cc1cccc2c1[C@H]1CC[C@H](CC1)OCC1N(CCCC13COCC(=O)N3)C(=O)CO2` (stereo partly drawn) [Example 47, Rel-(1′s,3S,16′R,19′s)-3′-methyl-8′,18′-dioxa-11′-azaspiro[morpholine-3,15′-tetracyclo[17.2.2. 0^2,^7.0^11,^16]tricosane]-2′(7′),3′,5′-triene-5,10′-dione], the EC50 is less than 100 nM.

Take `O=C1COCC2(CCCN3C(=O)COCc4ccccc4[C@H]4CC[C@H](CC4)OCC32)N1` (stereo partly drawn) [Example 55, Rel-(1′s,3S,17′R,20's)-9′,19′-dioxa-12′-azaspiro[morpholine-3,16′-tetracyclo[18.2.2.0^2,70.0^12,17]tetracosane]-2′(7′),3′,5′-triene-5,11′-dione]: the EC50 lay in the range of 1000 to 10000 nM.

Regarding `O=C1CCOc2ccccc2[C@H]2CC[C@H](CC2)OCC2N1CCCC21CCCS(=O)(=O)N1` (stereo partly drawn) [Example 60, Rel-(1s, 16R,17R,20s)-8,19-dioxa-12-azaspiro[tetracyclo[18.2.2.0^2,70.0^12,17]tetracosane-16,3′-[1λ^6,2]thiazinane]-2 (7),3,5-triene-1′,1′,11-trione], the EC50 was 100 to 1000 nM.

In the case of `O=C1COCC2(CCCN3C(=S)COc4ccccc4[C@H]4CC[C@H](CC4)OCC32)N1` (stereo partly drawn) [Example 66, Rel-(1′s,3S,16′R,19′s)-10′-sulfanylidene-8′,18′-dioxa-11′-azaspiro[morpholine-3,15′-tetracyclo[17.2.2.0^2,70.0^11,16]tricosane]-2′(7′),3′,5′-trien-5-one], the EC50 is 1000 to 10000 nM.

In the case of `Cc1ccnc2c1C1CCC(CC1)OCC1N(CCCC13COCC(=O)N3)C(=O)CO2` [Example 77a, (1′s,3S,16′R,19′s)-3′-methyl-8′,18′-dioxa-6′,11′-diazaspiro[morpholine-3,15′-tetracyclo[17.2.2.0^2,70.0^11,16]tricosane]-2′,4′,6′-triene-5,10′-dione], the EC50 is less than 100 nM.

In the case of `Cc1ccnc2c1[C@H]1CC[C@H](CC1)OC[C@H]1N(CCC[C@]13COCC(=O)N3)C(=O)CO2` [Example 77b, (1′s,3R,16′S,19′s)-3′-methyl-8′,18′-dioxa-6′, 11′-diazaspiro[morpholine-3,15′-tetracyclo[17.2.2.0^2,70.0^11,16]tricosane]-2′,4′,6′-triene-5,10′-dione], the EC50 is greater than 10000 nM.

Test system in another data set: not given
Experiment: not given
The conditions noted are these: from CC(CC(=O)O)Oc1ccccc1[C@H]1CC[C@@H](OC[C@@H]2NCC[C@@]23COCC(=O)N3)CC1; amide bond; HATU/DIPEA; acetonitrile; 3.7 mM; 3.0 h.
Regarding `CC1CC(=O)N2CC[C@@]3(COCC(=O)N3)[C@@H]2CO[C@H]2CC[C@H](CC2)c2ccccc2O1` (relative stereo), the ring closure, yield of all isomers was 45.6%.

The data set is the same for the next values; noted with them: from C[C@@H]1CC2(COCC(=O)N2)C(COC2CC=C(c3cccc(F)c3OCC(=O)O)CC2)N1; amide bond; HATU, DIPEA; acetonitrile; 16.9 mM; 3.0 h.
As for `C[C@@H]1CC2(COCC(=O)N2)C2COC3CC=C(CC3)c3cccc(F)c3OCC(=O)N21` (stereo partly shown), the ring closure, yield of all isomers is 30.1%.

Staying with this data set, now noted: from O=C1COC[C@@]2(CCCN(C(=O)OCCCl)[C@H]2CO[C@H]2CC[C@@H](c3cccc(O)c3)CC2)N1; ether bond; Cs2CO3; DMF; 4.02 mM; 60.0 °C; 15.0 h.
`O=C1COC[C@@]2(CCCN3C(=O)OCCOc4cccc(c4)[C@H]4CC[C@H](CC4)OC[C@H]32)N1` (relative stereo) came in with a ring closure, yield of all isomers of 11.1%.

Still in this data set, the particulars now being: from O=C1COC[C@@]2(CCCN[C@H]2Cc2cccc(-c3ccccc3OCCO)c2F)N1; other bond; triphosgene; MeCN; 15.7 mM; 80.0 °C; 20.5 h.
With `O=C1COC[C@@]2(CCCN3C(=O)OCCOc4ccccc4-c4cccc(c4F)C[C@H]32)N1` (relative stereo), the ring closure, yield of all isomers came to 3.6%.

Still in this data set, the particulars now being: from O=C(O)COc1ccccc1[C@H]1CC[C@@H](OCC2NCCCC2O)CC1; amide bond; HATU; acetonitrile; 19.25 mM; 3.0 h.
The molecule `O=C1COc2ccccc2[C@H]2CC[C@H](CC2)OCC2C(O)CCCN12` (stereo partly shown) returned a ring closure, yield of all isomers of 65%.
